Among the data in EP0721336B1, “BENZAZOLE COMPOUNDS FOR USE IN THERAPY” (CANCER RESEARCH CAMPAIGN TECHNOLOGY LIMITED, priority 1993, dated 1995) are IC50 values, retold here.

Read-outs that look alike come from different tables or passages of the source.

What all share (type): cell-based, human
One assay relates to MCF 7-ADR mammary. The assay can be described thus: In vitro cytotoxicity and growth stimulation assay. The conditions noted are these: Homo sapiens, NCI/ADR-RES; column B; read-out: MCF7-Adr B IC50 at >micromolar concentrations. The text has this:
(§1) This is illustrated in Tables 1 and 2 at the end of the present description which show in vitro test results obtained in various sets of experiments for the cytotoxic activity of this compound CJM 126 against a range of human tumour cell lines, expressed in terms of IC50 values (concentration or dosage required to reduce cell growth or proliferation by 50%) calculated from dose-effect curves plotted for cultures of the cells in question.
(§2) In carrying out the above in vitro studies, the method used for conducting the cytotoxicity assays was generally substantially as follows: • Cells were maintained in a continuous logarithmic culture in Dulbecco's medium supplemented with 10% fetal calf serum and penicillin (100 IU/ml) and streptomycin (100 µg/ml). The cells were mildly trypsinized for passage and for use in assays. On day zero, 100µl of trypsinized tumour cells (1 x 10^4/ml) were plated in the wells of 96-well flat-bottom microtiter plates. […] On day two 50µl of the highest drug concentration was added to the wells of column 12 and from there serially diluted 3-fold to column 1 by serial transfer of 50µl using an 8-channel micropipette. The final volume of column 1 was adjusted to 100µl. No additions were made to the wells of rows A and B, which served as controls. The plates were further incubated for 5 days at 37°C and 5% CO2 in air. Each compound was tested in duplicate. • On day 7 the test was terminated by the addition of 100µl saline containing 0.002% w/v propidium iodide (Sigma), 0.3% drawing ink (Staedtler "Marsmatic 745" - Trade Mark) and 0.5% Triton X-100. The plates were kept at 4°C overnight before reading on an inverted microscope equipped with an automated scanning stage. Fluorescence intensity was measured in arbitrary units by a photomultiplier. An HP-87 computer controlled the movement of the stage and also collected and processed the data from the multiplier. • For each compound tested a dose-response curve was obtained and the IC50 value (the drug concentration at 50% inhibition of cell growth) was calculated.

Assay [1] has as its system MDA 468 mammary (ER-/EGFR+). The assay can be described thus: In vitro cytotoxicity assay. The conditions noted are these: Homo sapiens.
Excerpt: as §1, §2

Assay [2] has as its system MCF-7 mammary carcinoma cells. The assay can be described thus: In vitro cytotoxicity assay (cell growth, propidium iodide fluorescence). The conditions noted are these: Homo sapiens, MCF-wt.
Excerpt: as §1, §2

Take `Nc1ccc(-c2nc3cc(OCc4ccccc4)ccc3s2)c(Cl)c1` [DF161, 2-(4-Amino-2-chlorophenyl)-5-benzyloxybenzothiazole]: the IC50 in the assay on MCF 7-ADR mammary came to 84.8 µM; in assay [1] (column A, read-out: MDA 468 A IC50 at sub-micromolar concentrations), 0.0007 µM; in assay [1] (column B, read-out: MDA 468 B IC50 at >micromolar concentrations), 2.84 µM; in assay [2] (column A, read-out: MCF-wt A IC50 at sub-micromolar concentrations), 0.001 µM; in assay [2] (column B, read-out: MCF-wt B IC50 at >micromolar concentrations), 55.9 µM.
